Measured values as given in patent US9044442B2, “Peptidomimetic compounds as immunomodulators” (AURIGENE DISCOVERY TECHNOLOGIES LIMITED, priority 2012, dated 2015).

Key:
[1] = test system: MDA-MB-231 tumor cells expressing PD-L1; experiment: Rescue of mouse splenocyte proliferation inhibited by MDA-MB-231 tumor cells expressing PD-L1 (CFSE based assay); type: cell-based; details: for Fold induction: % splenocyte proliferation / % background proliferation, background 1.0, stimulated 3.7; for % Splenocyte proliferation: mouse splenocytes + anti-CD3/CD28 + MDA-MB-231 cells + compound, 72 hrs, background 20, stimulated 74
Text: (§1) The effect of PD1 derived peptidomimetics on mouse splenocyte proliferation inhibited by recombinant PDL1 or tumor cells expressing PDL; analyzed by Fluorescence Activated Cell Shorting (FACS) method using CFSE (Carboxyfluorescein Diacetate Succinimidyl Ester) labeling.
Rescue of Mouse Splenocyte Proliferation in the Presence of Recombinant PD-L1/MDA MB-231 Cells Expressing PDL1: […]
(§2) Mouse splenocytes harvested from 6-8 weeks old C57 BL6 mice; RPMI 1640 (GIBCO, Cat #11875); DMEM with high glucose (GIBCO, Cat # D6429); Fetal Bovine Serum [Hyclone, Cat # SH30071.03]; Penicillin (10000 unit/ml)-Streptomycin (10,000 μg/ml) Liquid (GIBCO, Cat #15140-122); MEM Sodium Pyruvate solution 100 mM (100×), Liquid (GIBCO, Cat #11360); Nonessential amino acid (GIBCO, Cat #11140); L-Glutamine (GIBCO, Cat #25030); Anti-CD3 antibody (eBiosciences—16-0032); Anti-CD28 antibody (eBiosciences—16-0281); ACK lysis buffer (imp (GIBCO, Cat #-A10492); Histopaque (density-1.083 gm/ml) (SIGMA 10831); Trypan blue solution (SIGMA-T8154); 2 ml Norm Ject Luer Lock syringe—(Sigma 2014-12); 40 μm nylon cell strainer (BD FALCON 35230); Hemacytometer (Bright line-SIGMA Z359629); FACS Buffer (PBS/0.1% BSA): Phosphate Buffered Saline (PBS) pH 7.2 (HiMedia TS1006) with 0.1% Bovine Serum Albumin (BSA) (SIGMA A7050) and sodium azide (SIGMA 08591); 5 mM stock solution of CFSE: CFSE stock solution was prepared by diluting lyophilized CFSE with 180 μL of Di methyl Sulfoxide (DMSO C2H6SO, SIGMA-D-5879) and aliquoted in to tubes for further use. Working concentrations were titrated from 10 μM to 1 μM. (eBioscience—650850-85); 0.05% Trypsin and 0.02% EDTA (SIGMA 59417C); 96-well format ELISA plates (Corning CLS3390); BD FACS caliber (E6016); Recombinant Human B7-H1/PDL1 Fc Chimera (rh-PDL-1, cat no: 156-B7-100);
Splenocytes harvested in a 50 ml falcon tube by mashing mouse spleen in a 40 μm cell strainer were further treated with 1 ml ACK lysis buffer for 5 mins at room temperature. After washing with 9 ml of RPMI complete media, cells were re-suspended in 3 ml of 1×PBS in a 15 ml tube. 3 ml of Histopaque was added carefully to the bottom of the tube without disturbing overlaying splenocyte suspension. After centrifuging at 800×g for 20 mins at room temperature, the opaque layer of splenocytes was collected carefully without disturbing/mixing the layers. Splenocytes were washed twice with cold 1×PBS followed by total cell counting using Trypan Blue exclusion method and used further for cell based assays.
Splenocytes were cultured in RPMI complete media (RPMI+10% fetal bovine serum+1 mM sodium pyruvate+10,000 units/ml penicillin and 10,000 μg/ml streptomycin) and maintained in a CO2 incubator with 5% CO2 at 37° C.
CFSE is a dye that passively diffuses into cells and binds to intracellular proteins. 1×10^6 cells/ml of harvested splenocytes were treated with 5 μM of CFSE in pre-warmed 1×PBS/0.1% BSA solution for 10 mins at 37° C. Excess CFSE was quenched using 5 volumes of ice-cold culture media to the cells and incubated on ice for 5 mins. CFSE labelled splenocytes were further given three washes with ice cold complete RPMI media. CFSE labelled 1×10^5 splenocytes added to wells containing either MDA-MB231 cells (1×10^5 cells cultured in high glucose DMEM medium) or recombinant human PDL-1 (100 ng/ml) and test compounds. Splenocytes were stimulated with anti-mouse CD3 and anti-mouse CD28 antibody (1 μg/ml each), and the culture was further incubated for 72 hrs at 37° C. with 5% CO2. Cells were harvested and washed thrice with ice cold FACS buffer and % proliferation was analyzed by flow cytometry with 488 nm excitation and 521 nm emission filters.
(§3) Percent splenocyte proliferation was analyzed using cell quest FACS program and fold induction was calculated by normalizing individual values to % background proliferation. […]

[2] = test system: CT26 (murine colon carcinoma) cells; experiment: In vivo efficacy on primary tumour growth in CT-26 colon cancer model; design: species or system mouse; details: male Balb/c mice, 3 mg/kg
Description: Two million CT26 (murine colon carcinoma) cells injected to male Balb/c mice (s.c) on day 1 and dosing started on Day 5. Each group consisted of ten animals. Tumor volumes were measured 3 times a week, body weight and clinical signs monitored daily. Compound #2 dosed at 3 mg/kg, inhibited the tumour growth to the extent of 46 percent (p<0. p<0.01, 2-way ANOVA) (FIG. 2).

recombinant mouse PDL-1 = biological target: T1, recombinant mouse PDL-1 (Mus musculus, UniProt Q9EP73); experiment: Rescue of splenocyte effector function, IFN-γ release by ELISA, recombinant mouse PDL-1; type: cell-based; details: mouse splenocytes, anti-CD3/CD28, PDL-1 100 ng/ml, 72 hrs, read-out: EC50 (nM), IFN-γ release, in presence of recombinant mouse PDL-1
T1 construct: purchased R&D Systems 1019-B7-100
Description: (§4) 1×10^5 splenocytes (isolated as described earlier) were added to wells containing recombinant mouse PDL-1 (cat no: 1019-B7-100, R&D Systems) or PDL-2 (Cat no: 1022-PL-100, R&D Systems) (both at 100 ng/ml) and test peptidomimetics. Splenocytes were stimulated with anti-mouse CD3 (eBiosciences—16-0032) and anti-mouse CD28 antibody (eBiosciences—16-0281) (1 μg/ml each) and the culture was further incubated for 72 hrs at 37° C. with 5% CO2. After 72 hours of incubation the cell culture supernatants were collected after brief centrifugation of culture plates (200 g×5 mins at 4° C.) and processed for mouse IFN-γ measurement by ELISA following manufacturer's protocol (e Biosciences; 88-7314). In brief, 96 well ELISA plates were coated with 100 μl/well of capture antibody in coating buffer and incubated overnight at 4° C. Plates were washed five times with wash buffer and further blocked with 200 μl of 1× assay diluents for 1 hr at RT. Following wash step, 100 μl of cell culture supernatants were added to wells and further incubated for 2 hrs at RT. Appropriate standards were also included. After wash step, plate was incubated for one hour with 100 μl/well of detection antibody. The wash step was repeated and the plate was incubated for 30 minutes with 100 μl/well of Avidin-HRP. The plate was washed 7 times with wash buffer and incubated for 15 minutes with 100 μl/well of substrate solution. 50 μl of stop solution was added to each well and the plate was read at 450 nm. The absorbance values were then plotted against the standards and the concentration of IFN-γ was determined using GraphPad Prism software. Each experimental condition was carried out in triplicates. Percent IFN-γ release for each test compound concentration was calculated by normalising individual test compound IFN-γ values to anti-CD3+anti-CD28 stimulated IFN-γ value. The percent IFN-γ release by test compounds were calculated using following formula: % IFN-γ release=[(Test compound IFN-γ−PDL background control)/(anti-CD3+anti-CD28 positive control−PDL background control)]*100. […]

recombinant mouse PDL-2 = biological target: T2, recombinant mouse PDL-2 (Mus musculus, UniProt Q9WUL5); experiment: Rescue of splenocyte effector function, IFN-γ release by ELISA, recombinant mouse PDL-2; type: cell-based; details: mouse splenocytes, anti-CD3/CD28, PDL-2 100 ng/ml, 72 hrs, read-out: EC50 (nM), IFN-γ release, in presence of recombinant mouse PDL-2
T2 construct: purchased R&D Systems 1022-PL-100
Description: as §4

recombinant human PDL-1 = biological target: T3, recombinant human PDL-1 (Homo sapiens, UniProt Q9NZQ7); experiment: Rescue of mouse splenocyte proliferation inhibited by recombinant human PDL-1 (CFSE, FACS); type: cell-based; details: mouse splenocytes, anti-CD3/CD28 stimulated, rh-PDL-1 100 ng/ml, 72 hrs
T3 construct: Fc (Fc chimera); purchased R&D Systems 156-B7-100
Text: as §1
Rescue of Mouse Splenocyte Proliferation in the Presence of Recombinant PD-L1/MDA MB-231 Cells Expressing PDL1:
Alternatively, recombinant human PD-L1 (rh-PDL-1, cat no: 156-B7-100, R&D Systems) was also used as the source of PD-Ll.
as §2, with “Working concentrations were titrated from 10 μM to 1 μM. (eBioscience—650850-85); 0.05% Trypsin and 0.02% EDTA (SIGMA 59417C); 96-well format ELISA plates (Corning CLS3390); BD FACS caliber (E6016); Recombinant Human B7-H1/PDL1 Fc Chimera (rh-PDL-1, cat no: 156-B7-100);” left out
CFSE is a dye that passively diffuses into cells and binds to intracellular proteins. […] Cells were harvested and washed thrice with ice cold FACS buffer and % proliferation was analyzed by flow cytometry with 488 nm excitation and 521 nm emission filters.
as §3

T3 sequence (Q9NZQ7 with tags, fused parts or gaps limits assumed): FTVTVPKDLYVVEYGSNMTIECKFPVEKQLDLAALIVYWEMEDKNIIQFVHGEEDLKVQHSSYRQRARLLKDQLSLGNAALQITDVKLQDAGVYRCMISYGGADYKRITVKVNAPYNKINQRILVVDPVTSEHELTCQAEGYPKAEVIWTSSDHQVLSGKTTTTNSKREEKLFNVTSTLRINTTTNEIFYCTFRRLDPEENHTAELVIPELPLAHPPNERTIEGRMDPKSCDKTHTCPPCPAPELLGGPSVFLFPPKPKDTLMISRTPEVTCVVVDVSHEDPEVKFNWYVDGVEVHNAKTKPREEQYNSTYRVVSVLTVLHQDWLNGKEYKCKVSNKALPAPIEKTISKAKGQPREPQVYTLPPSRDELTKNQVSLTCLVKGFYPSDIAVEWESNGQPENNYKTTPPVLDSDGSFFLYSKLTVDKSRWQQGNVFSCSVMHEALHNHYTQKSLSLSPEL
T2 sequence (Q9WUL5 with tags, fused parts or gaps limits assumed): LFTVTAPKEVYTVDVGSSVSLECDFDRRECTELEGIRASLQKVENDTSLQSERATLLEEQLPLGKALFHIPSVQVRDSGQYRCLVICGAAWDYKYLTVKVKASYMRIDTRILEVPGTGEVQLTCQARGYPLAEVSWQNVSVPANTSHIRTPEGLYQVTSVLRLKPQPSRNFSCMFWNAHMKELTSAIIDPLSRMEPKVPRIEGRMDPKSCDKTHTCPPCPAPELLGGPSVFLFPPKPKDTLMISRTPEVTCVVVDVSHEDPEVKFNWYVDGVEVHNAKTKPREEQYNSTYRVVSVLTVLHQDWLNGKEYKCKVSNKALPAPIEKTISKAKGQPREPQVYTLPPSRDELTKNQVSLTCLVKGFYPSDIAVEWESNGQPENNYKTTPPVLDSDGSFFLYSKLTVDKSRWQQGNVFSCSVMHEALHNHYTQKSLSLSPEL
T1 sequence (Q9EP73 with tags, fused parts or gaps limits assumed): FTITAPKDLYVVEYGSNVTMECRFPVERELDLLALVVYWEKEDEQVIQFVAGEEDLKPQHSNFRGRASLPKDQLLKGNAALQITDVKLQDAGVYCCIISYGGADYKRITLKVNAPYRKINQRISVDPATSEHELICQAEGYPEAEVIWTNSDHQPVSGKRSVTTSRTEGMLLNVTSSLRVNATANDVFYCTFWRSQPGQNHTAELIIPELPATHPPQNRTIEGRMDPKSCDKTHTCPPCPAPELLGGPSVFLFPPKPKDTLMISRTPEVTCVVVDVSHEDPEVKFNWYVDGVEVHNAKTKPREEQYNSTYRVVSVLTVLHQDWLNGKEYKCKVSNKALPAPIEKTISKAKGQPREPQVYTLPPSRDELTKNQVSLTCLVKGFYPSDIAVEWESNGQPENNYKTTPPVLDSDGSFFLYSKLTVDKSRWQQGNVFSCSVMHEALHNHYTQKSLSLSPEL

| SMILES | Fold induction [1] | % Splenocyte proliferation [1] [%] | also measured |
| --- | --- | --- | --- |
| CNC(=O)N[C@H](C(=O)N[C@@H](CC(N)=O)C(=O)NNC(=O)[C@@H](N)CO)C(C)O (some centres unmarked) [Compound 18] | 3 | 59 | – |
| CCC(C)[C@H](NC(=O)N[C@@H](CC(N)=O)C(=O)NNC(=O)[C@@H](N)CO)C(=O)O (some centres unmarked) [Compound 8] | 3 | 60 | – |
| COC[C@H](N)C(=O)NNC(=O)[C@H](CC(N)=O)NC(=O)N[C@H](C(=O)O)C(C)O (some centres unmarked) [Compound 11] | 2.2 | 44 | – |
| CC(O)[C@H](NC(=O)N[C@@H](CC(N)=O)C(=O)NNC(=O)[C@@H](N)CO)C(N)=O (some centres unmarked) [Compound 6] | 2.3 | 46 | – |
| CC(O)[C@H](NC(=O)N[C@H](CC(N)=O)C(=O)NNC(=O)[C@H](N)CO)C(=O)O (some centres unmarked) [Compound 15] | 2.9 | 58 | – |
| CN[C@@H](CO)C(=O)NNC(=O)[C@H](CC(N)=O)NC(=O)N[C@H](C(=O)O)C(C)O (some centres unmarked) [Compound 4] | 2.8 | 56 | – |
| C[C@H](NC(=O)N[C@@H](CC(N)=O)C(=O)NNC(=O)[C@@H](N)CO)C(=O)O [Compound 17] | 3 | 59 | – |
| CC(O)[C@H](NC(=O)N[C@@H](CC(N)=O)C(=O)NNC(=O)[C@@H](N)CO)C(=O)O (some centres unmarked) [Compound 2] | 3.4 | 68 | body weight reduction during the period of dosing ([2]; CT26 model): no body weight reduction; clinical signs during the period of dosing ([2]; CT26 model): no clinical signs; inhibition of tumour growth ([2]; CT26 s.c., dosing from Day 5): 46%; EC50 (recombinant mouse PDL-1): 30 nM; EC50 (recombinant mouse PDL-2): 40 nM; EC50 (recombinant human PDL-1): 23 nM |
| CC(O)[C@@H](N)C(=O)NNC(=O)[C@@H](CC(N)=O)NC(=O)N[C@H](CO)C(=O)O (some centres unmarked) [Compound 13] | 3.4 | 67 | EC50 (recombinant mouse PDL-1): 40 nM; EC50 (recombinant mouse PDL-2): 30 nM; EC50 (recombinant human PDL-1): 35 nM |
| NC(=O)C[C@H](NC(=O)N[C@@H](CC(=O)O)C(=O)O)C(=O)NNC(=O)[C@@H](N)CO [Compound 7] | 2.9 | 57 | – |
| CC(O)[C@H](N)C(=O)NNC(=O)[C@H](CC(N)=O)NC(=O)N[C@@H](CO)C(=O)O (some centres unmarked) [Compound 12] | – | – | EC50 (recombinant mouse PDL-1): 27 nM; EC50 (recombinant mouse PDL-2): 62 nM; EC50 (recombinant human PDL-1): 22 nM |
| COC(=O)[C@@H](NC(=O)N[C@@H](CC(N)=O)C(=O)NNC(=O)[C@@H](N)CO)C(C)O (some centres unmarked) [Compound 10] | 3.4 | 67 | – |
| NC(=O)C[C@H](N)C(=O)NNC(=O)[C@@H](N)CO [Compound 1] | 2.8 | 56 | – |
| CC(O)[C@H](N)C(=O)N[C@@H](CC(N)=O)C(=O)NNC(=O)[C@@H](N)CO (some centres unmarked) [Compound 5] | 3 | 60 | – |
